Where a name gives a salt, the structure may show the parent alone. Read-outs that look alike come from different tables or passages of the source.
Columns and labels:
Format in all cases: cell-based
[1] = test system: P. vulgaris 101; assay: In vitro antibacterial activity (MIC)
Summary of the method: (§1)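 Twofold-style dilution series (128 to 0.008 μg/ml) made in Mueller-Hinton broth, dispensed, then inoculated with 1.5 μl of a 10^-2 overnight-culture dilution. Plates sealed, held overnight at 37° C, inspected with a viewer.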

[2] = test system: E. cloacae 24; assay: In vitro antibacterial activity (MIC)
Summary of the method: as §1

[3] = test system: S. marcescens S714; assay: In vitro antibacterial activity (MIC)
Summary of the method: as §1

[4] = test system: S. marcescens S1; assay: In vitro antibacterial activity (MIC)
Summary of the method: as §1

[5] = test system: S. schottmuelleri; assay: In vitro antibacterial activity (MIC); conditions: read-out: MIC
Summary of the method: as §1

[6] = test system: S. marcescens S4; assay: In vitro antibacterial activity (MIC)
Summary of the method: as §1

[7] = test system: E. coli 503-455; assay: In vitro antibacterial activity (MIC)
Summary of the method: as §1

[8] = test system: E. coli 387-1; assay: In vitro antibacterial activity (MIC)
Summary of the method: as §1

[9] = test system: K. pneumoniae 4964; assay: In vitro antibacterial activity (MIC)
Summary of the method: as §1

[10] = test system: S. pyogenes 4; assay: In vitro antibacterial activity (MIC)
Summary of the method: as §1

[11] = test system: P. aeruginosa 8710; assay: In vitro antibacterial activity (MIC); conditions: P. aeruginosa 8710
Summary of the method: as §1

[12] = test system: E. aerogenes 83; assay: In vitro antibacterial activity (MIC)
Summary of the method: as §1

[13] = test system: P. mirabilis 90; assay: In vitro antibacterial activity (MIC)
Summary of the method: as §1

[14] = test system: P. aeruginosa 503-820; assay: In vitro antibacterial activity (MIC); conditions: Pseudomonas aeruginosa, 503820; P. aeruginosa 503-820; read-out: MIC
Summary of the method: as §1

[15] = test system: E. aerogenes 8; assay: In vitro antibacterial activity (MIC)
Summary of the method: as §1

[16] = test system: P. mirabilis 503-1136; assay: In vitro antibacterial activity (MIC)
Summary of the method: as §1

[17] = test system: S. aureus 1059B; assay: In vitro antibacterial activity (MIC)
Summary of the method: as §1

[18] = test system: P. aeruginosa 8780; assay: In vitro antibacterial activity (MIC); conditions: P. aeruginosa 8780
Summary of the method: as §1

[19] = test system: E. coli 4; assay: In vitro antibacterial activity (MIC)
Summary of the method: as §1

[20] = test system: P. mirabilis 190; assay: In vitro antibacterial activity (MIC)
Summary of the method: as §1

[21] = test system: K. pneumoniae A; assay: In vitro antibacterial activity (MIC); conditions: K. pneumoniae A
Summary of the method: as §1

[22] = test system: E. coli 257; assay: In vitro antibacterial activity (MIC, Mueller-Hinton broth)
Description: Drug dilutions are prepared in Mueller-Hinton broth ranging from 128 to 0.008 μg/ml. The diluted agents are dispensed in 100 μl amounts into the wells of a 96-well tray and used immediately or frozen at -10° to -70° C. until needed. Using an automated inoculator, 1.5 μl of a 10^-2 dilution of an overnight culture is added to each well of the tray. The tops of the trays are then sealed using transparent tape and incubated overnight at 37° C. The trays are examined with the aid of a viewer. The lowest concentration at which no growth is observed is considered to be the minimum inhibitory concentration (MIC).

[23] = Proteus vulgaris, 101, P. vulgaris 101, read-out: MIC
[24] = Enterobacter cloacae, 24, E. cloacae 24, read-out: MIC
[25] = Serratia marcescens, S714, S. marcescens S714, read-out: MIC
[26] = Serratia marcescens, S1, S. marcescens S1, read-out: MIC
[27] = Serratia marcescens, S4, S. marcescens S4, read-out: MIC
[28] = Escherichia coli, 503455, E. coli 503-455, read-out: MIC
[29] = Escherichia coli, 3871, E. coli 387-1, read-out: MIC
[30] = Klebsiella pneumoniae, 4964, K. pneumoniae 4964, read-out: MIC
[31] = Streptococcus pyogenes, 4, S. pyogenes 4, read-out: MIC
[32] = Pseudomonas aeruginosa, read-out: MIC
[33] = Klebsiella aerogenes, 83, E. aerogenes 83, read-out: MIC
[34] = Proteus mirabilis, 90, P. mirabilis 90, read-out: MIC
[35] = Klebsiella aerogenes, E. aerogenes 8, read-out: MIC
[36] = Proteus mirabilis, 5031136, P. mirabilis 503-1136, read-out: MIC
[37] = Staphylococcus aureus, read-out: MIC
[38] = Escherichia coli, 4, E. coli 4, read-out: MIC
[39] = Proteus mirabilis, 190, P. mirabilis 190, read-out: MIC
[40] = Klebsiella pneumoniae, read-out: MIC
[41] = Escherichia coli, 257, E. coli 257, read-out: MIC
[42] = Klebsiella aerogenes, 8, E. aerogenes 8

Compound | MIC [1, 23] [µg/mL] | MIC [2, 24] [µg/mL] | MIC [3, 25] [µg/mL] | MIC [4, 26] [µg/mL] | MIC [5] [µg/mL] | MIC [6, 27] [µg/mL] | MIC [7, 28] [µg/mL] | MIC [8, 29] [µg/mL] | MIC [9, 30] [µg/mL] | MIC [11, 32] [µg/mL] | MIC [12, 33] [µg/mL] | MIC [13, 34] [µg/mL] | MIC [14] [µg/mL] | MIC [15, 35] [µg/mL] | MIC [16, 36] [µg/mL] | MIC [17, 37] [µg/mL] | MIC [20, 39] [µg/mL] | MIC [21, 40] [µg/mL] | MIC [22, 41] [µg/mL] | MIC ([19]; Escherichia coli, 4) [µg/mL] | other results
CC1(C)S[C@@H]2[C@H](N=CN3CCC(CCCn4ccnc4)CC3)C(=O)N2[C@H]1C(=O)O [C, [2S-(2alpha,5alpha,6beta)]-6-[[4-[3-(1H-imidazol-1-yl)propyl]-1-piperidinyl]methylene]amino]-3,3-dimethyl-7-oxo-4-thia-1-azabicyclo[3.2.0]heptane-2-carboxylic acid 1.2 mole hydrochloride monohydrate] | 128 | 32 | 32 | 128 | 4 | 32 | 128 | 8 | > 128 | > 128 | > 128 | 32 | > 128 | > 128 | 128 | > 128 | 8 | 4 | 2 | – | MIC [10, 31]: 64 µg/mL; MIC [18, 32]: > 128 µg/mL; MIC [19, 38]: 8 µg/mL
CC1(C)S[C@@H]2[C@H](N=CN3CCC(c4ncc[nH]4)CC3)C(=O)N2[C@H]1C(=O)O [O, [2S-(2alpha,5alpha,6beta)]-6-[[[4-(1H-imidazol-2-yl-1-piperidinyl]methylene]amino]-3,3-dimethyl-7-oxo-4-thia-1-azabicyclo[3.2.0]heptane-2-carboxylic acid hydrochloride trihydrate] | 32 | 1 | 1 | 0.5 | 0.125 | 2 | 1 | – | 64 | > 128 | 8 | 0.5 | > 128 | 32 | – | > 128 | 0.5 | 0.062 | – | 0.125 | MIC ([8]; Escherichia coli, 3871): 0.125 µg/mL; MIC [10, 31]: 0.5 µg/mL; MIC [18, 32]: > 128 µg/mL; MIC ([22]; Escherichia coli, 257): 0.125 µg/mL
CC1(C)S[C@@H]2[C@H](N=CN3CCC(CCCn4ccnc4CO)CC3)C(=O)N2[C@H]1C(=O)O [R, [2S-(2alpha,5alpha,6beta)]-6-[[[4-[3-[2-(hydroxymethyl)-1H-imidazol-1-yl]propyl-1-piperidinyl]methylene]amino]-3,3-dimethyl-7-oxo-4-thia-1-azabicyclo[3.2.0]heptane-2-carboxylic acid hydrochloride 1.1 molar hydrate] | 1 | 0.25 | 1 | 0.062 | < 0.008 | 0.5 | 0.5 | 2 | 0.5 | – | – | 0.5 | 128 | – | 4 | 64 | 0.062 | < 0.008 | 0.016 | 2 | MIC ([12]; Klebsiella aerogenes, 83): 1 µg/mL; MIC [15, 42]: 32 µg/mL
CC1(C)S[C@@H]2[C@H](N=CN3CCC(CCn4ccnc4)CC3)C(=O)N2[C@H]1C(=O)O [B, [2S-2alpha,5alpha,6beta)]-6-[[[4-[2-(1H-imidazol-1-yl)ethyl]-1-piperidinyl]methylene]amino]-3,3-dimethyl-7-oxo-4-thia-1-azabicyclo[3.2.0]heptane-2-carboxylic acid hydrate hydrochloride] | 1 | – | 1 | 0.5 | 0.25 | 1 | – | 8 | – | > 128 | 0.5 | 2 | > 128 | 0.25 | 8 | > 128 | 0.5 | 0.062 | – | 8 | MIC ([2]; Enterobacter cloacae, 24): 2 µg/mL; MIC ([7]; Escherichia coli, 503455): 1 µg/mL; MIC ([9]; Klebsiella pneumoniae, 4964): 0.5 µg/mL; MIC [18, 32]: > 128 µg/mL; MIC ([22]; Escherichia coli, 257): 0.25 µg/mL
CC1(C)S[C@@H]2[C@H](N=CN3CCCC(c4ncc[nH]4)C3)C(=O)N2[C@H]1C(=O)O (stereo partly drawn) [P, [2S-(2alpha,5alpha,6beta)]-6-[[[3-(1H-imidazol-2-yl)-1-piperidinyl]methylene]amino]-3,3-dimethyl-7-oxo-4-thia-1-azabicyclo[3.2.0]heptane-2-carboxylicacid hydrochloride] | 64 | 8 | – | 8 | 2 | > 128 | 64 | – | 64 | – | 8 | 8 | – | 16 | 64 | 64 | 4 | 2 | – | – | MIC ([3]; Serratia marcescens, S714): 32 µg/mL; MIC ([8]; Escherichia coli, 3871): 4 µg/mL; MIC [19, 38]: 2 µg/mL; MIC ([22]; Escherichia coli, 257): 2 µg/mL
CC1(C)S[C@@H]2[C@H](N=CN3CCCC(CCn4ccnc4)CC3)C(=O)N2[C@H]1C(=O)O.Cl.O (single isomer, unassigned) [D] | – | – | – | – | – | – | – | – | – | – | – | – | – | – | – | – | – | – | – | – | MIC ([1]; P. vulgaris 101): 32 µg/mL; MIC ([2]; E. cloacae 24): 0.5 µg/mL; MIC ([3]; S. marcescens S714): 1 µg/mL; MIC ([4]; S. marcescens S1): 0.5 µg/mL; MIC ([6]; S. marcescens S4): 1 µg/mL; MIC ([7]; E. coli 503-455): 1 µg/mL; MIC ([8]; E. coli 387-1): 0.125 µg/mL; MIC ([9]; K. pneumoniae 4964): 1 µg/mL; MIC ([10]; S. pyogenes 4): 1 µg/mL; MIC [11]: > 128 µg/mL; MIC ([12]; E. aerogenes 83): 16 µg/mL; MIC ([13]; P. mirabilis 90): 1 µg/mL; MIC ([15]; E. aerogenes 8): 128 µg/mL; MIC ([16]; P. mirabilis 503-1136): 16 µg/mL; MIC [17]: 128 µg/mL; MIC [18]: > 128 µg/mL; MIC ([19]; E. coli 4): 0.125 µg/mL; MIC ([20]; P. mirabilis 190): 0.25 µg/mL; MIC [21]: 0.031 µg/mL; MIC ([22]; E. coli 257): 0.125 µg/mL
CC1(C)S[C@@H]2[C@H](N=CN3CCC(Cc4ncc[nH]4)CC3)C(=O)N2[C@H]1C(=O)O [Q, [2S-(2alpha,5alpha,6beta)]-6-[[[4-(1H-imidazol-2-yl-methyl)-1-piperidinyl]methylene]amino]-3,3-dimethyl-7-oxo-4-thia-1-azabicyclo[3.2.0]heptane-2-carboxylic acid hydrochloride] | 8 | 0.5 | 0.25 | 0.125 | – | 0.5 | 1 | 0.062 | 4 | 128 | 4 | 0.5 | – | 0.125 | 8 | 128 | 0.25 | 0.062 | 0.062 | – | MIC [19, 38]: 0.062 µg/mL
CN(C)C=Nc1nccn1CCCC1CCN(C=N[C@@H]2C(=O)N3[C@@H]2SC(C)(C)[C@@H]3C(=O)O)CC1 [S, [2S-(2alpha,5alpha,6beta)]-6-[[[4-[3-[2-[[(dimethylamino)methylene]amino]-1H-imidazol-1-yl]propyl]-1-piperidinyl]methylene]amino]-3,3-dimethyl-7-oxo-4-thia-1-azabicyclo[3.2.0]heptane-2-carboxylic acid 1.7 molar hydrochloride 2.6 molar hydrate] | 8 | 1 | 4 | 4 | 0.25 | 4 | – | 2 | 0.5 | – | 4 | 4 | – | – | 8 | 64 | 1 | 0.5 | 0.25 | 4 | MIC ([7]; Escherichia coli, 503455): 1 µg/mL; MIC [15, 42]: 32 µg/mL

— patent US4605744A, “Imidazole derivatives” (Hoffmann-La Roche Inc., priority 1985, dated 1986)
